Data: publication PMC5442318, “Hundreds of dual-stage antimalarial molecules discovered by a functional gametocyte screen” (Nature Communications, 2017)

Tests used:
HepG2 cells = test: HepG2 cytotoxicity assay; assay type: cell-based
Outline: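 Once incubation ended, the HepG2 plates were warmed to room temperature for 30 min alongside the CellTiter-Glo reagent. Luminescent signal was developed by reagent addition and stabilized for 10 min before plate reading.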

[1] = tested on: P. falciparum male gametocytes (exflagellation); test: Exflagellation assay (male gametocytes); assay type: cell-based, Plasmodium falciparum; design: Exflagellation Inhibition %: concentration or dose not given beside the values
Description: Figure 5 Exflagellation inhibition by six TCAMS compounds. Stage V gametocyte cultures were exposed to 2 μM of TCMDC-141070 and 1 μM of the five remaining compounds for 48 h. The percentage inhibition was determined compared to DMSO-treated controls. Compounds were then progressed into SMFA to further determine the transmission blocking in mosquitoes. Each bar represents mean value of two (TCMDC-125345, TCMDC-141698, TCMDC-123767, TCMDC-141154) or three (TCMDC-141070, TCMDC-124559) independent replicates with s.d.
Exflagellation was measured as previously reported[24] with minor modifications. Using 5 ml of day-14 gametocyte cultures, parasites were incubated with the corresponding concentration for each compound in six-well plates at 37 °C (3% O2, 5% CO2 and 92% N2). After 48 h incubation, a 200 μl sample was spun down in a microfuge, the supernatant was carefully removed and the pellet resuspended in 15 μl of pre-warmed ookinete medium. Parasites were placed in Fast-Read disposable haemocytometer slides and, after 15 min at room temperature (22 °C), exflagellation centres per field were counted under × 10 objective.

[2] = tested on: P. falciparum oocysts in Anopheles stephensi mosquitoes; test: Standard membrane feeding assay (SMFA), indirect format; assay type: cell-based, Plasmodium falciparum; design: Oocyst Reduction Intensity %: concentration or dose not given beside the values; conditions: for Block in transmission (%) (reduction in oocyst prevalence): 1 or 2 μM (Pf FGAA IC90)
Description: To validate the transmission-blocking potential of the TCAMS hits and assess the predictive value of the Pf FGAA as an in vitro high throughput surrogate of full mosquito feeding, the ‘gold-standard' SMFA was performed. Six compounds showing different biological profiles, belonging to four distinct chemical clusters, were selected based on their potencies in the Pf FGAA (Supplementary Data 1, Table 1). For each compound, inhibition of exflagellation of male gametocytes was measured. […] Compounds were tested in duplicate in 2–3 independent experiments in the indirect format of the assay, that is, gametocytes were exposed to the drug for 48 h before mosquito feeding to replicate a drug exposure time equivalent to that used in the Pf FGAA. […] By contrast, TCMDC-124559 reduced prevalence and intensity by <20% (Fig. 6a,b, respectively).
Day-14 gametocyte cultures were plated in pre-warmed six-well-plates (5 ml per well) and were exposed to the compounds (1 μM or 2 μM final concentration) for 48 h at 37 °C (3% O2, 5% CO2 and 92% N2). Within this incubation time, 3 ml of media were removed after the first 24 h and replenished with the same volume of fresh media with compound added to obtain the required final concentration. After 48 h of total exposure, cultures were centrifuged at 2,500 g for 3 min at 37 °C, diluted 1:1 with 100% packed volume of fresh erythrocytes and finally formulated as artificial mosquito blood meals at 50% haematocrit with pre-warmed human serum. All steps were performed at 37 °C to avoid gametocyte activation. Four- to six-day old female Anopheles stephensi mosquitoes (GlaxoSmithKline Insectary) were fed for 30 min via Parafilm membrane attached to glass feeders (12831283, Fisher Scientific) connected to a 37 °C circulating water bath. Fed mosquitoes were maintained in an incubator at 27 °C and 75% relative humidity with 12 h light/dark cycles. Seven to eight days post-feeding, mosquitoes with fully developed ovaries were dissected for midguts, which were rinsed in a 0.2% mercury-dibromofluorescein (63869, Fluka) in water solution for 10 min. Total number of oocysts in individual midguts were counted using a light microscope (DM2000, Leica) under a × 10 objective. The percentage of block in transmission (reduction in prevalence) and the percentage of reduction in mean oocyst intensity were calculated after normalizing to the control DMSO-treated sample. Two to three independent SMFA experiments were performed and two internal duplicates of 40 mosquitoes each were used per compound. Mean oocyst intensities were not less than two oocysts per mosquito and the prevalence of infection ranged from 70 to 90% in the fed mosquito control groups. See complete experimental data set in Supplementary Table 1 and Supplementary Note 1.

[3] = tested on: P. falciparum female gametes; test: Pf FGAA with compounds added 30 min after triggering gametocyte activation (gamete-targeting); assay type: cell-based, Plasmodium falciparum NF54; conditions: Plasmodium falciparum; 0h incubation time
[4] = tested on: Plasmodium berghei asexual blood stages; test: In vivo antimalarial therapeutic efficacy, P. berghei murine model; design: species or system CD1 mice
Description: Two out of the six compounds progressed to SMFA, TCMDC-123767 (cluster 30) and TCMDC-141154 (cluster 4), were evaluated in vivo in the Plasmodium berghei murine model. Selection criteria was based on the compound potencies in both asexual stages and gametocytes in the Pf FGAA, as well as on their transmission-blocking activity observed in the SMFA (Table 1). Owing to compound availability, TCMDC-141154 had to be replaced by a close analogue from cluster 4: TCMDC-140549 (Supplementary Data 3). Compounds were tested at 50 mg kg^−1 single dose 2-day oral treatment and efficacy was measured as a reduction of asexual blood stages parasitaemia greater than 40% compared with the vehicle-treated mice.
Pathogen-free CD1 mice (Hsd:ICR) were obtained from Harlan Interfauna Iberica (Barcelona, Spain). Eight weeks old female CD-1 mice were infected intravenously with 10^7 infected erythrocytes (day 0). Dosing solutions were prepared in water containing 5% DMSO/20% Captisol, at a target dose of 50 mg kg^−1. Mice received two oral doses once a day according to their body weight (20 ml kg^−1) starting at day 2 after infection. Control mice received the same treatment schedule with the vehicle used for the compound preparation. Samples from mice peripheral blood were taken before starting treatment and 24 h after finishing the dosing, to measure parasitaemia by flow cytometry, using the YOYO-1 staining, to assess the reduction of parasitaemia compared with the vehicle-treated mice.

[5] = 48 h exposure, 2 μM TCMDC-141070, 1 μM other compounds, vs DMSO, mean of 2-3 replicates
[6] = 48 h exposure before feeding, mean of 2-3 experiments
[7] = HepG2 TOX50 versus Pf FGAA IC50

| SMILES | IC50 [3] | Tox50 (HepG2 cells; HepG2, 48 h) | Selectivity ratio (HepG2 cells; HepG2 TOX50 / Pf FGAA IC50) | HepG2 cells mean TOX50 (HepG2 cells; mean; HepG2 cells) | Inhibition of exflagellation (%) [1, 5] | Exflagellation Inhibition % ([1]; Expt 1) | Exflagellation Inhibition % ([1]; Expt 2) | Block in transmission (%) (reduction in oocyst prevalence) [2, 6] | Block in Transmission % ([2]; Expt 1) | Mean Oocyst Intensity in Test Compound ([2]; Expt 1) | Oocyst Reduction Intensity % ([2]; Expt 1) | Prevalence of Infection in Test Compound ([2]; Expt 1) | Block in Transmission % ([2]; Expt 2) | Mean Oocyst Intensity in Test Compound ([2]; Expt 2) | Oocyst Reduction Intensity % ([2]; Expt 2) | Prevalence of Infection in Test Compound ([2]; Expt 2) | Selectivity ratio (HepG2 cells; [7]) | HepG2 cells mean TOX50 (HepG2 cells; HepG2 cells; mean) | Block in Transmission % ([2]; Expt 3) | Mean Oocyst Intensity in Test Compound ([2]; Expt 3) | further results |
| --- | --- | --- | --- | --- | --- | --- | --- | --- | --- | --- | --- | --- | --- | --- | --- | --- | --- | --- | --- | --- | --- |
| COc1cc(OC)cc(C(=O)Nc2nc(-c3ccccn3)cs2)c1 [TCMDC-125345] | 4.95 µM | 39.82 µM | – | – | 50% | 47% | – | 60% | 54% | 0.7 | 88% | 35.97 | 58% | 1.0 | 83% | 38.22 | 111.27 | 39.82 µM | – | – | – |
| CC1Cc2ccccc2N1S(=O)(=O)c1cccc(C(=O)Nc2nc(-c3ccccn3)cs2)c1 (centres unmarked) [TCMDC-124559] | – | >100 µM | – | – | 30% | 28% | 0% | < 20% | 5% | 4.1 | 24% | 74.29 | 0% | 2.5 | 0% | 70 | 146.27 | 50.12 µM | 13% | 2.8 | Exflagellation Inhibition % ([1]; Expt 3): 60%; reduction in oocyst intensity ([2]; 48 h exposure before feeding, 1 or 2 μM, mean of 2-3 experiments): < 20%; Oocyst Reduction Intensity % ([2]; Expt 3): 39%; Prevalence of Infection in Test Compound ([2]; Expt 3): 79.17 |
| FC(F)(F)c1cnc(Sc2nnc(-c3ccncc3)o2)c(Cl)c1 [TCMDC-123767] | > 20 µM | 100 µM | – | – | 88% | 88% | 88% | 83% | 83% | 0.1 | 97% | 13.26 | 85% | 0.1 | 97% | 13.2 | >625 | >100 µM | – | – | HepG2 cells TOX50 (HepG2 cells; HepG2 cells): >100 µM; reduction of asexual blood stages parasitaemia (threshold 40% vs vehicle) ([4]; 50 mg kg^−1 single dose 2-day oral treatment, mice): not reduced above the threshold; ED50 ([4]; single dose 2-day treatment, oral, P. berghei mice): > 50 mg/kg |

Continued, in another order:

| IC50 [3] | SMILES | Tox50 (HepG2 cells; HepG2, 48 h) | Selectivity ratio (HepG2 cells; HepG2 TOX50 / Pf FGAA IC50) | HepG2 cells mean TOX50 (HepG2 cells; mean; HepG2 cells) | Inhibition of exflagellation (%) [1, 5] | Exflagellation Inhibition % ([1]; Expt 1) | Exflagellation Inhibition % ([1]; Expt 2) | Block in transmission (%) (reduction in oocyst prevalence) [2, 6] | Block in Transmission % ([2]; Expt 1) | Mean Oocyst Intensity in Test Compound ([2]; Expt 1) | Oocyst Reduction Intensity % ([2]; Expt 1) | Prevalence of Infection in Test Compound ([2]; Expt 1) | Block in Transmission % ([2]; Expt 2) | Mean Oocyst Intensity in Test Compound ([2]; Expt 2) | Oocyst Reduction Intensity % ([2]; Expt 2) | Prevalence of Infection in Test Compound ([2]; Expt 2) | Selectivity ratio (HepG2 cells; [7]) | HepG2 cells mean TOX50 (HepG2 cells; HepG2 cells; mean) | Block in Transmission % ([2]; Expt 3) | Mean Oocyst Intensity in Test Compound ([2]; Expt 3) | further results |
| --- | --- | --- | --- | --- | --- | --- | --- | --- | --- | --- | --- | --- | --- | --- | --- | --- | --- | --- | --- | --- | --- |
| 0.25 µM | NCC1(c2nc(-c3ccc(Cl)c(O)c3)c(-c3ccncc3)[nH]2)CCCCC1 [TCMDC-141154] | 11.9 µM | 56.01 | 11.90 µM | 97% | 97% | 97% | 93% | 93% | 0.1 | 99% | 5.46 | 93% | 0.1 | 98% | 6.16 | – | – | – | – | – |
| 1.77 µM | CC(C)(CNC(=O)[C@H]1CCCCN1)c1nc(-c2ccc(Cl)c(O)c2)c(-c2ccncc2)[nH]1 [TCMDC-141070] | 28.96 µM | 54.30 | 28.96 µM | – | 75% | – | – | 100% | 0 | 100% | 0 | 78% | 0.2 | 92% | 15.4 | – | – | 100% | 0 | inhibition at 2 µM ([1]; Plasmodium falciparum, 48 h exposure, 2 μM TCMDC-141070, 1 μM other compounds, vs DMSO, mean of 2-3 replicates): 99%; Oocyst Reduction Intensity % ([2]; Expt 3): 100%; Prevalence of Infection in Test Compound ([2]; Expt 3): 0 |
| 1.93 µM | Cc1ccc(Cn2nc(Cl)c(N3CCNCC3)cc2=O)cc1NC(=O)Nc1ccc(-c2ccccc2)cc1 [TCMDC-141698] | 4.79 µM | 10.79 | 4.79 µM | 84% | – | 87% | 82% | 82% | 0.2 | 97% | 14.04 | 90% | 0.2 | 97% | 8.8 | – | – | – | – | – |
